Assays:
Assay type in all cases: biochemical
Jak3 = molecular target: T1, Jak3 (Homo sapiens, UniProt P52333); experiment: JAK3 kinase domain assay (ELISA or Alphascreen); settings: capacity to inhibit 50% of activity at 50 μM; read-out: Jak3 inhibitory activity
T1 construct: The kinase domain of humanJAK3 was amplified from U937mRNA; His tag (from pFastBac HTb vector) (N); made in house; host or cells: baculovirus; Sf9 insect cells for virus, High Five cells for large-scale production
Method: (§1) For screening purposes, compounds were diluted in 96 well plates at a concentration of 20 μM. Plates were warmed at 37° C. for 30 minutes before assay.
(§2) • JAK2 PCR products were cloned into the pFastBac HTc expression vector (Gibco) via the Sal I and Not I sites. The JAK2 plasmid was then transformed into competent DH10Bac cells (Gibco), and the recombinant baculovirus produced prepared for transfection into Sf9 insect cells. JAK3 • The kinase domain of humanJAK3 was amplified from U937mRNA using the polymerase chain reaction with the following primers:
• JAK3 PCR products were cloned into the pFastBac HTb expression vector (Gibco) via the Xho I and Kpn I sites. The JAK3 plasmid was then transformed into competent DH10Bac cells (Gibco), and the recombinant baculovirus produced prepared for transfection into Sf9 insect cells. TYK2 • The kinase domain of humanTYK2 was amplified from A549 mRNA using the polymerase chain reaction with the following primers: […]
(§3) Baculovirus preparations from each of the JAK family members were infected into five litres of High Five cells (Invitrogen) grown in High Five serum free medium (Invitrogen) to a cell density of approximately 1-2×10^6 cells/ml. Cells are infected with virus at a MOI of 0.8-3.0. Cells were harvested and lysed. JAK kinase domains were purified by affinity chromatography on a Probond (Invitrogen) nickel chelate affinity column.
(§4) Kinase assays were performed either in a 96 well capture-based ELISA assay or in 384 well Optiplates (Packard) using an Alphascreen Protein Tyrosine Kinase kit. In either casse using approximately 1.5 μg of affinity purified PTK domain in the presence of 50 mM HEPES, pH 7.5, 10 mM MgCl2, 150 mM NaCl and 10 μM-1 mM ATP. The biotinylated substrate biotin-EGPWLEEEEEAYGWMDF-NH2 (SEQ ID NO:9) (final concentration 5 μM) was used as substrate. In the ELISA assay tyrosine phosphorylation was quantitated following transfer to an avidin coated ELISA plate using peroxidase-linked anti-phospho-tyrosine antibody PY20. In the Alphascreen assay, Alphascreen phosphotyrosine acceptor beads followed by streptavidin donor beads were added under subdued light. The ELISA plates were read on a BMG Fluorostar, the Alphascreen plates were read on a Packard Fusion Alpha. Inhibitors were added to the assays fifteen minutes prior to the addition of ATP. Inhibitors were added in aqueous DMSO, with DMSO concentrations never exceeding 1%.

kdr = kdr (Homo sapiens, UniProt P35968); experiment: kdr kinase assay (ELISA or Alphascreen); settings: capacity to inhibit 50% of activity at 50 μM; read-out: kdr inhibitory activity
Chain of kdr (P35968 834-1162 limits assumed, species assumed): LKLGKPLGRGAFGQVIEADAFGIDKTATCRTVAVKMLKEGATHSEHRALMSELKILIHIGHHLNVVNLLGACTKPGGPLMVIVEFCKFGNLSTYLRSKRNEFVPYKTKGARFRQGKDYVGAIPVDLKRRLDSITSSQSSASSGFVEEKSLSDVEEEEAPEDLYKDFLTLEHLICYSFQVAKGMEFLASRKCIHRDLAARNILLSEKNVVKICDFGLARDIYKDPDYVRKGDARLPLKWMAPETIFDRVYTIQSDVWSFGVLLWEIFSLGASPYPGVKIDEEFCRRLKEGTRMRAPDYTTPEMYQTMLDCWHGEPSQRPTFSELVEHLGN
Method: as §1, §4

abl = molecular target: T2, abl (Homo sapiens, UniProt P00519); experiment: abl kinase assay (ELISA or Alphascreen); settings: capacity to inhibit 50% of activity at 50 μM; read-out: abl inhibitory activity
T2 sequence (P00519 242-493 limits assumed): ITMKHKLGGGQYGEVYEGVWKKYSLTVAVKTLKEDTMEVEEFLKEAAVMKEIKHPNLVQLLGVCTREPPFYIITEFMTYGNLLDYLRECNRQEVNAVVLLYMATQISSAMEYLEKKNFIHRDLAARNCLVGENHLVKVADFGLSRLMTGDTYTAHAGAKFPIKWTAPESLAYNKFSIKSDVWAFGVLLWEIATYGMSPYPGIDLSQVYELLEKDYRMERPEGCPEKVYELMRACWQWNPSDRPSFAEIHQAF
Method: as §1, §4

Jak2 = molecular target: T3, Jak2 (Homo sapiens, UniProt O60674); experiment: JAK2 kinase domain assay (ELISA or Alphascreen); settings: capacity to inhibit 50% of activity at 50 μM; read-out: Jak2 inhibitory activity
T3 construct: The kinase domain of humanJAK2 was amplified from U937mRNA; His tag (from pFastBac HTc vector) (N); made in house; host or cells: baculovirus; Sf9 insect cells for virus, High Five cells for large-scale production
T3 sequence (O60674 849-1124 limits assumed): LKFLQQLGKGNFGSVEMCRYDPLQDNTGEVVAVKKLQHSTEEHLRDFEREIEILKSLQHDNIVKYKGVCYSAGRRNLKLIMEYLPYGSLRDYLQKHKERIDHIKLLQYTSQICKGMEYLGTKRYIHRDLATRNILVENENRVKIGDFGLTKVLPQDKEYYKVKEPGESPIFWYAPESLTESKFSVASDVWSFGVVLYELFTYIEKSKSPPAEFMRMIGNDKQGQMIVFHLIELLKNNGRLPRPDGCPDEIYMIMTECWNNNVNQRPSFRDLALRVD
Method: as §1
• JAK1 PCR products were cloned into the pFastBac HTb expression vector (Gibco) via the Xho I and Kpn I sites. The JAK1 plasmid was then transformed into competent DH10Bac cells (Gibco), and the recombinant baculovirus produced prepared for transfection into Sf9 insect cells. JAK2 • The kinase domain of humanJAK2 was amplified from U937mRNA using the polymerase chain reaction with the following primers:
as §2, with “primers: […]” for “primers:”
as §3, §4

hck = hck (Homo sapiens, UniProt P08631); experiment: hck kinase assay (ELISA or Alphascreen); settings: capacity to inhibit 50% of activity at 50 μM; read-out: hck inhibitory activity
Chain of hck (P08631 262-515 limits assumed, species assumed): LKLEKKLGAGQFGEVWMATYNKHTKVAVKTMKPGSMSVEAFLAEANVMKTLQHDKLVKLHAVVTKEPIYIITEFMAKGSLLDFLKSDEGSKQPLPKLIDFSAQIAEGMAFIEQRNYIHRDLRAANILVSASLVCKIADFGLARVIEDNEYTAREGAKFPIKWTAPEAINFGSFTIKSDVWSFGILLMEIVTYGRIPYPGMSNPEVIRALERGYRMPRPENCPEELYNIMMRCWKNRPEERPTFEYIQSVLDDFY
Method: as §1, §4

T1 sequence (P52333 822-1111 limits assumed): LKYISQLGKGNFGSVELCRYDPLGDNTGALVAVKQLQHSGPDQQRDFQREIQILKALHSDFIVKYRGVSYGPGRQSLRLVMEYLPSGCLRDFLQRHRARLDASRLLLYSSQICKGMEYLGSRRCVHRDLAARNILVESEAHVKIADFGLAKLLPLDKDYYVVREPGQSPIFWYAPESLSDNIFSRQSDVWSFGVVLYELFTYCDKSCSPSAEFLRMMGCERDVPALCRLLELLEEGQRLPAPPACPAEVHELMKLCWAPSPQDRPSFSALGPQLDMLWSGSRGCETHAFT

SMILES | inhibition at 50 µM (Jak3) [%] | inhibition at 50 µM (kdr) [%] | inhibition at 50 µM (abl) [%] | inhibition at 50 µM (Jak2) [%] | inhibition at 50 µM (hck) [%]
c1ccc(CNc2cncc(-n3cnc4ccccc43)n2)cc1 | > 50 | < 50 | > 50 | > 50 | > 50
C[C@H](Nc1cncc(-n2cnc3cc(NS(C)(=O)=O)ccc32)n1)c1ccccc1 | < 50 | > 50 | > 50 | > 50 | > 50
C[C@H](Nc1cncc(-n2cnc3cnccc32)n1)c1ccccc1 | > 50 | > 50 | > 50 | > 50 | > 50
C[C@H](Nc1cncc(-n2cnc3cc(CN4CCN(C)CC4)ccc32)n1)c1ccccc1 | < 50 | > 50 | < 50 | < 50 | > 50
C[C@H](Nc1cncc(-n2cnc3cc(C(=O)NCCN(C)C)ccc32)n1)c1ccccc1 | < 50 | > 50 | > 50 | > 50 | > 50
C[C@H](Nc1cncc(-n2cnc3cc(NC(=O)C4CC4)ccc32)n1)c1ccccc1 | < 50 | > 50 | > 50 | < 50 | > 50
c1cn(-c2cncc(Nc3ccc(N4CCOCC4)cc3)n2)cn1 | < 50 | < 50 | > 50 | > 50 | > 50
C[C@@H](Nc1cncc(-n2cnc(-c3ccccc3)c2)n1)c1ccccc1 | < 50 | > 50 | > 50 | < 50 | > 50
Cc1nccn1-c1cncc(NCc2ccc(F)cc2)n1 | > 50 | < 50 | < 50 | < 50 | > 50
CNCCN(C)Cc1ccc2ncn(-c3cncc(NC(C)c4ccc(F)cc4)n3)c2c1 (stereo not shown) | < 50 | > 50 | < 50 | > 50 | > 50
Cc1ccc2c(c1)ncn2-c1cncc(N[C@@H](C)c2ccccc2)n1 | < 50 | > 50 | > 50 | > 50 | > 50
C[C@H](Nc1cncc(-n2cnc3ccc(C(=O)NCCO)cc32)n1)c1ccccc1 | > 50 | > 50 | > 50 | > 50 | > 50
Cc1nc2ccccc2n1-c1cncc(N[C@@H](C)c2ccccc2)n1 | < 50 | < 50 | < 50 | < 50 | < 50
C[C@@H](Nc1cncc(-n2ccnc2)n1)c1ccccc1 | < 50 | < 50 | > 50 | < 50 | > 50
C[C@H](Nc1cncc(-n2cnc3ccc(NC(=O)C(C)(C)C)cc32)n1)c1ccccc1 | > 50 | > 50 | > 50 | > 50 | > 50
C[C@H](Nc1cncc(-n2cnc3ccc(C(=O)N4CCOCC4)cc32)n1)c1ccccc1 | < 50 | > 50 | > 50 | < 50 | > 50
CC(Nc1cncc(-n2cnc3ccc(CN4CCN(C)CC4)cc32)n1)c1ccc(F)cc1 (stereo not shown) | < 50 | > 50 | < 50 | < 50 | > 50
C[C@H](Nc1cncc(-n2cnc3ccncc32)n1)c1ccccc1 | > 50 | > 50 | > 50 | > 50 | > 50
C[C@H](Nc1cncc(-n2cnc3cc(Br)ccc32)n1)c1ccccc1 | > 50 | > 50 | > 50 | > 50 | > 50
C[C@H](Nc1cncc(-n2cnc3ccc(C4=NCCO4)cc32)n1)c1ccccc1 | < 50 | > 50 | > 50 | > 50 | > 50

Source: US7511047B2, “Kinase inhibitors” (Cytopia Research Pty Ltd, priority 2002, dated 2009)
